Like-named read-outs stand apart in the source and are kept apart here.
Assays:
[1] = system: ClC-K kidney Cl− channels; parameters: method as in Zifarelli et al., 2010; conditions: biphasic: activates at low concentrations; ref Zifarelli et al., 2010; cited from earlier work
α2β GlyR = biological target: T1, α2β GlyR (Homo sapiens, UniProt P23416+P48167); assay: Whole-cell patch-clamp of glycine-induced currents, heteromeric α2β GlyR expressed in CHO cells; assay type: cell-based; conditions: glycine 30 μM
T1 construct: expressed in transfected cells; host or cells: CHO cells
T1 sequence (P23416 28-452 isoform P23416-2 limits assumed): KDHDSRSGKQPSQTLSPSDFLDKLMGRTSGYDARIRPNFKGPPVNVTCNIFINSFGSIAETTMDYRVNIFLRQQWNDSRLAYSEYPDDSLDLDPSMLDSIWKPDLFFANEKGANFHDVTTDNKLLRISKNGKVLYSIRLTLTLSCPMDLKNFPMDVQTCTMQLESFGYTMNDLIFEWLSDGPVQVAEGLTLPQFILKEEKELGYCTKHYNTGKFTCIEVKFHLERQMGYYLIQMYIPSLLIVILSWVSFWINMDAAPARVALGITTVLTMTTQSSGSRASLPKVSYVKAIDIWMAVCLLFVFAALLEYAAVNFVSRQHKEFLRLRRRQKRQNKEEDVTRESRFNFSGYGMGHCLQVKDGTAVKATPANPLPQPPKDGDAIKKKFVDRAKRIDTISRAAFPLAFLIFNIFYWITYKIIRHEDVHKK
T1 sequence (P48167 23-497): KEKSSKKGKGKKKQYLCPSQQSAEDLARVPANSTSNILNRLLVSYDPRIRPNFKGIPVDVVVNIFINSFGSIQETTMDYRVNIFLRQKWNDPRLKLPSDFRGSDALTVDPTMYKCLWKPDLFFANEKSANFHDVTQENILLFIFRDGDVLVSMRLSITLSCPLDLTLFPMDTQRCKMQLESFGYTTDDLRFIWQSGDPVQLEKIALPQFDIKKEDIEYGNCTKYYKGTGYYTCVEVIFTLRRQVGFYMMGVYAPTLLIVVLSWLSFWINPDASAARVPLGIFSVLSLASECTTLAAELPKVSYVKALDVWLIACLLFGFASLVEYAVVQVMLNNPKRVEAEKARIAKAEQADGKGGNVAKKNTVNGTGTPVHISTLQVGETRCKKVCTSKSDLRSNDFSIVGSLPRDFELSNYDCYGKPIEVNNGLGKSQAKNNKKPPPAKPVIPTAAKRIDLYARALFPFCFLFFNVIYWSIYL
Procedure: (§1) The experiments were carried out on cultured Chinese hamster ovary (CHO) cells obtained from the American Type Tissue Culture Collection (ATCC, Molsheim, France) that were maintained in culture conditions as previously described (Mukhtarov et al., [2013]; Maleeva et al., [2015]).
(§2) One day before transfection, cells were plated on the cover slips (12 mm in diameter) and placed inside 35-mm cell culture dishes with 2 ml of medium. Transfection was performed using the Lipofectamine 3000 protocol (Life Technology, USA). To facilitate identification of transfected cells a green fluorescent protein (GFP) was added to the transfection mixture. For expression of functional heteromeric receptors, cells were simultaneously transfected with cDNAs of α and β subunits in the ratio 1:10. Three hours after the initial exposure of cells to the cDNAs the culture medium was replaced with that containing strychnine (1 μM), which prevents spontaneous activation of GlyRs. Electrophysiological recordings were performed in the fluorescent cells 24–72 h after transfection.
(§3) Whole-cell and outside-out recordings were performed at room temperature (20–25°C) using an EPC-9 amplifier (HEKA Elektronik, Germany). Cells were continuously superfused with external solution containing (mM): NaCl 140, CaCl2 2, KCl 2.8, MgCl2 4, HEPES 20, glucose 10; pH 7.4; 320–330 mOsm. Intracellular solution used for filling recording patch pipettes contained (mM): CsCl 140, CaCl2 6, MgCl2 2, MgATP 2, NaGTP 0.4, HEPES/CsOH 10, BAPTA (tetrapotassium salt) 2; pH 7.3; 290 mOsm. Two different protocols of solutions application were used in this study. […] A “ramp protocol” implies the gradual change of Vhold alternately from −80 to +80 mV and from +80 to −80 mV during 1 s, Vhold was fixed at −80 or +80 mV at the beginning and at the end of the ramp for 500 ms (Figure 2B).
(§4) Recording pipettes were pulled from borosilicate glass capillaries (Harvard Apparatus Ltd, USA) and had resistances of 5–10 MOhm. For the rapid replacement of the solutions, the fast application system was used. Three parallel rectangular tubes (100 × 100 μm) were positioned 40–50 μm above the recorded cell. The movement of the tubes was controlled by a computer-driven fast exchange system (SF 77A Perfusion Fast-Step, Warner, USA) allowing a 10–90% solution exchange in 3–5 ms, as measured by open electrode controls (1/10 external solution/water). Cells with low input resistance (<150 MOhm) and a rapid run-down (>30% with repetitive application) were excluded from analysis.
(§5) Electrophysiological recordings were performed using PatchMaster (HEKA Electronic, Germany) software.

α3 GlyR = biological target: T2, α3 GlyR (Homo sapiens, UniProt O75311); assay: Whole-cell patch-clamp of glycine-induced currents, α3 GlyR expressed in CHO cells; assay type: cell-based; conditions: glycine 100 μM; for inhibition at 30 µM / inhibition at 300 µM: CHO, long application protocol, read-out: inhibition of α3 GlyR-mediated currents; for inhibition at 30 µM: NFA 30 μM; for inhibition at 300 µM: NFA 300 μM
T2 construct: expressed in transfected cells; host or cells: CHO cells
T2 sequence (O75311 34-464): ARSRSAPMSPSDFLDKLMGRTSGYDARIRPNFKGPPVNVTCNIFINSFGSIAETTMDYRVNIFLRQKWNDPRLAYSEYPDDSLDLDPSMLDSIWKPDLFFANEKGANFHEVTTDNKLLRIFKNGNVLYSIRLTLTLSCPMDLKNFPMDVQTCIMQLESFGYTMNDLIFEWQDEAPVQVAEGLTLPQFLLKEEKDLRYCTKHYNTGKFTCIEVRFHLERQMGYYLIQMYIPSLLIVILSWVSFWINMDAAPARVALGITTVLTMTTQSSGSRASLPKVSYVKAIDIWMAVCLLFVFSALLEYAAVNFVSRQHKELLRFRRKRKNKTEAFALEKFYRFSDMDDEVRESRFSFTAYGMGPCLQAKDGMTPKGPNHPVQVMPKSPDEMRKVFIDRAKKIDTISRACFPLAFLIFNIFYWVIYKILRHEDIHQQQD
Procedure: as §1, §2, §3, §4, §5
It is well documented that α3 GlyRs rapidly desensitize (Nikolic et al., [1998]) and this complicates accurate estimation of the NFA blocking potency.

α1β GlyR = biological target: T3, α1β GlyR (Homo sapiens, UniProt P23415+P48167); assay: Whole-cell patch-clamp of glycine-induced currents, heteromeric α1β GlyR expressed in CHO cells; assay type: cell-based; conditions: glycine 30 μM
T3 construct: expressed in transfected cells; host or cells: CHO cells
T3 sequence (P23415 29-449 isoform P23415-2 limits assumed): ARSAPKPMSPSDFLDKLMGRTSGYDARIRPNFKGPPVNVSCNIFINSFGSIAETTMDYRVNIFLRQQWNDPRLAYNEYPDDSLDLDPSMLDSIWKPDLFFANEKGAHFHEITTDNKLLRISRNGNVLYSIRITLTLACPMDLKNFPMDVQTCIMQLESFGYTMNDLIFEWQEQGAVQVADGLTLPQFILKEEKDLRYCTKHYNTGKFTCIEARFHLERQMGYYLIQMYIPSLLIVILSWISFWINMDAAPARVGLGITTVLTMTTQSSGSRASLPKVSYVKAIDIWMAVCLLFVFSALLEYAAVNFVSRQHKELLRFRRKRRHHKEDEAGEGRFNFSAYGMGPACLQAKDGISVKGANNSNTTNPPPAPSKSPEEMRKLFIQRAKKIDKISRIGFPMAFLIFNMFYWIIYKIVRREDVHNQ
T3 sequence (P48167 23-497): as the sequence (P48167 23-497) above
Procedure: as §1, §2, §3, §4, §5

[2] = +30 mV, representative, read-out: NFA IC50 (representative IC50 curve)
[3] = +80 mV, mean ± SEM, read-out: IC50 of NFA
[4] = +80 mV, representative, read-out: NFA IC50 (representative IC50 curve)
[5] = −30 mV, representative, read-out: NFA IC50 (representative IC50 curve)
[6] = −80 mV, representative, read-out: NFA IC50 (representative IC50 curve)

Q: Which “concentrations at which NFA blocks the channels” value [1] does the source give for O=C(O)c1cccnc1Nc1cccc(C(F)(F)F)c1 [NFA, Niflumic acid] here?
A: The value was greater than 1 mM.

Q: And the IC50 (α2β GlyR; [2])?
A: The IC50 was 24 µM.

Q: And the IC50 (α2β GlyR; [3])?
A: Its IC50 is 20 ± 8 µM.

Q: And the IC50 (α2β GlyR; [4])?
A: Its IC50 is 22 µM.

Q: What about the IC50 (α2β GlyR; [5]) of the same molecule?
A: The IC50 was 47 µM.

Q: And the IC50 (α2β GlyR; −80 mV, mean ± SEM, read-out: IC50 of NFA)?
A: Its IC50 is 107 ± 37 µM.

Q: What about the IC50 (α2β GlyR; [6]) of the same molecule?
A: The IC50 was 84 µM.

Q: What about the IC50 (α3 GlyR; [2]) of the same molecule?
A: The IC50 was 23 µM.

Q: And the IC50 (α3 GlyR; [4])?
A: Its IC50 is 10 µM.

Q: And the inhibition at 30 µM (α3 GlyR; +30 mV)?
A: Its inhibition at 30 µM is 62 ± 5%.

Q: What about the inhibition at 30 µM (α3 GlyR; −30 mV) of the same molecule?
A: The inhibition at 30 µM was 32 ± 4%.

Q: And the inhibition at 300 µM (α3 GlyR; +30 mV)?
A: Its inhibition at 300 µM is 90 ± 2%.

Q: What about the inhibition at 300 µM (α3 GlyR; −30 mV) of the same molecule?
A: The inhibition at 300 µM was 86 ± 5%.

Q: And the IC50 (α3 GlyR; MP +80 mV, mean ± SEM, read-out: IC50 of NFA)?
A: The IC50 was 16 ± 6 µM.

Q: And the IC50 (α3 GlyR; MP −80 mV, mean ± SEM, read-out: IC50 of NFA)?
A: The IC50 was 86 ± 14 µM.

Q: And the IC50 (α3 GlyR; [5])?
A: The IC50 was 78 µM.

Q: What about the IC50 (α3 GlyR; [6]) of the same molecule?
A: The IC50 was 117 µM.

Q: What about the IC50 (α1β GlyR; [2]) of the same molecule?
A: Its IC50 is 152 µM.

Q: What about the IC50 (α1β GlyR; [3]) of the same molecule?
A: Its IC50 is 150 ± 14 µM.

Q: What about the IC50 (α1β GlyR; [4]) of the same molecule?
A: Its IC50 is 144 µM.

Q: What about the IC50 (α1β GlyR; [5]) of the same molecule?
A: Its IC50 is 200 µM.

Q: What about the IC50 (α1β GlyR; [6]) of the same molecule?
A: Its IC50 is 191 µM.

From publication PMC5432571 (Frontiers in Molecular Neuroscience, 2017)
